According to patent publication US12421225B2, “Heteroaromatic amide derivative and medicament containing the same” (KAKEN PHARMACEUTICAL CO., LTD., priority 2018, dated 2025):

Target: human Nav1.7 (Homo sapiens (Human), UniProt Q15858)
Experiment: Human Nav1.7 inhibitory activity evaluation (automated patch clamp QPatch16X, HEK293A cells stably expressing human Nav1.7 and human Navβ1)
Type: cell-based
Experimental: Test Example 1: Human Nav1.7 Inhibitory Activity Evaluation
A cell line in which human Nav1.7 and human Navβ1 subunits were stably expressed in HEK293A cells was used. Dulbecco's Modified Eagle Medium (DMEM) supplemeted with 10% fetal bovine serum, 600 μg/ml geneticin, and 2 μg/ml blasticidin S were used as culture medium under the conditions of 37° C. and 5% CO2 in T175 flasks to carry out culturing. When 60-80% confluence was reached, the cells were detached and a cell suspension of about 0.5-5.0×10^6 cells/mL was prepared. The amount of current through human Nav1.7 was recorded using a fully automatic patch clamp device QPatch16X (Sophion Biosciences) at room temperature. As the extracellular solution, the solution of 145 mM NaCl, 4 mM KCl, 1 mM MgCl2, 2 mM CaCl2, 10 mM Glucose, 10 mM 4-(2-hydroxyethyl)-1-piperazine ethanesulfonic acid (HEPES) at pH 7.4 was used. As the intracellular solution, the solution of 135 mM CsF, ⅕ mM glycol ether diaminetetraacetic acid (EGTA)/CsOH, 10 mM HEPES, 10 mM NaCl at pH 7.3 was used. The test compounds were dissolved in dimethyl sulfoxide (DMSO) and diluted with the extracellular solution to attain the DMSO concentration of 0.1% at the time of assay.
The current response was obtained at a sampling frequency of 25 kHz, and noise was removed with a 3 kHz low-pass filter. The holding potential was −100 mV. Correction of the leakage current was carried out by applying a step pulse of −120 mV before the test pulse. In order to investigate inhibitory action of the test compound, the following test pulse was given: Namely, after depolarizing pulse of −10 mV was applied for 50 milliseconds, it was fixed at −120 mV for 500 milliseconds; a potential at which about 30-40% of the channel was inactivated was maintained for 15 seconds, then fixed again at −120 mV for 100 milliseconds, and finally a −10 mV depolarization pulse was given for 50 milliseconds. Test pulses were given before and after the test compound addition.
The inhibitory activity of the test compound was determined based on the amount of inward current generated by the second depolarization pulse, and the 50% inhibitory concentration (IC50) was calculated from the concentration-response curve.

[1] = human Nav1.7, automated patch clamp
[2] = HEK293A cells stably expressing human Nav1.7 and human Navβ1, automated patch clamp QPatch16X

human Nav1.7, sequence (Q15858 whole entry): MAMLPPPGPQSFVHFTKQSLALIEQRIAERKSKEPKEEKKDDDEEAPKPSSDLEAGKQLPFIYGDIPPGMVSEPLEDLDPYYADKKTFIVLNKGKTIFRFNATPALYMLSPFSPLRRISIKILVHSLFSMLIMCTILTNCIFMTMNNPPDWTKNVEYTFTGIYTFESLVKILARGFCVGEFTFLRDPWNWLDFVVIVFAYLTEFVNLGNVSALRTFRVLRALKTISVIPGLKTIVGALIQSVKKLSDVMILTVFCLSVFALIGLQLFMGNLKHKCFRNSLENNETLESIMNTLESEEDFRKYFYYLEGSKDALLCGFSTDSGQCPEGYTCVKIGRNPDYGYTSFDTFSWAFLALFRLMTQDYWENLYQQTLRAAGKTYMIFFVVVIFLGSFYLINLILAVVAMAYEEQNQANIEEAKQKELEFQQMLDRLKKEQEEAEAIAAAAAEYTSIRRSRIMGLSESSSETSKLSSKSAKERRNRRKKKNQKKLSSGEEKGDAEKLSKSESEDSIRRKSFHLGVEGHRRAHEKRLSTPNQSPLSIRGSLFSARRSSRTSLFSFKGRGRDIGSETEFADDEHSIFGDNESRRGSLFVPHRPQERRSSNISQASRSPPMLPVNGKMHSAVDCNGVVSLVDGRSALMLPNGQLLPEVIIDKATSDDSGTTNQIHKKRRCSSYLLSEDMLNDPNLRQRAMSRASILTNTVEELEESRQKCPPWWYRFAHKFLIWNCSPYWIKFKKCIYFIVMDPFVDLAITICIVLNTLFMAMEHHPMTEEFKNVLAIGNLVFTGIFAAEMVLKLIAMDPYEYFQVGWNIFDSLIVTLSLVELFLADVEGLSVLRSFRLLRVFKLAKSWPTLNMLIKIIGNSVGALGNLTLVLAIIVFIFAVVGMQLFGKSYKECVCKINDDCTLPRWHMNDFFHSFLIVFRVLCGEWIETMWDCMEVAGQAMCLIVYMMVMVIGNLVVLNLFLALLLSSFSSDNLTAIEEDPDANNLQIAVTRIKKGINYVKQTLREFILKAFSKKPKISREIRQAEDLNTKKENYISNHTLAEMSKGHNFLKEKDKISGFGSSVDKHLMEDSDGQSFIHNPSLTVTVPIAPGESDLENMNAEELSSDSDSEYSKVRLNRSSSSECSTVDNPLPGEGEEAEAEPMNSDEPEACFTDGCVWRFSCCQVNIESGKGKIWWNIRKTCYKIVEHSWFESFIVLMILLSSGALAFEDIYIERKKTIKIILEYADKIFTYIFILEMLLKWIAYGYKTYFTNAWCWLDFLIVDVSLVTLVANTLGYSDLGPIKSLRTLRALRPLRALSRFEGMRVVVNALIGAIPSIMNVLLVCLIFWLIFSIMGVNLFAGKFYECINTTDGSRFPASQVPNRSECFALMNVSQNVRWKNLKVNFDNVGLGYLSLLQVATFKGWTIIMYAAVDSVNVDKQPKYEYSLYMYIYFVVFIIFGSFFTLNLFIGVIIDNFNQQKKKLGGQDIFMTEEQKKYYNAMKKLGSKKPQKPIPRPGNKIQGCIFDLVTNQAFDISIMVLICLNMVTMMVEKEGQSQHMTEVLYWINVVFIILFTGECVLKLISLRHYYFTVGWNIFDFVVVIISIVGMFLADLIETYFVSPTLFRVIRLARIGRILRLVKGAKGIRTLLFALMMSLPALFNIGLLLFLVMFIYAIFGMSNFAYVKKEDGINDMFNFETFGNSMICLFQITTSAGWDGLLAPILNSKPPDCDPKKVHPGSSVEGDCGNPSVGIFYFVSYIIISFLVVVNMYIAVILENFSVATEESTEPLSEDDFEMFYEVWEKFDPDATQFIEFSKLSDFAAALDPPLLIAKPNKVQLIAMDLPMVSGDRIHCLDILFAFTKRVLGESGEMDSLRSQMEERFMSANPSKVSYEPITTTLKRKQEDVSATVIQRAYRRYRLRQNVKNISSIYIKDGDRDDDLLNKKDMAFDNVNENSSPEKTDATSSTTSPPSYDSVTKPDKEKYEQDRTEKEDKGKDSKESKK
human Nav1.7, sequence (Q07699 19-218 partner): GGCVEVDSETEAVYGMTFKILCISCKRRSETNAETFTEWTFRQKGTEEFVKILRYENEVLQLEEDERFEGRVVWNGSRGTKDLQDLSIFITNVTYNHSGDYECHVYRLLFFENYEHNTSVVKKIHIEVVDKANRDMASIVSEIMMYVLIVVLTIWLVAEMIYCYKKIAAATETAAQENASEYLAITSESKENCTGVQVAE

Compound | IC50 [1] | IC50 [2]
N#Cc1ccc2c(c1)C[C@@H](NC(=O)c1cc3n(n1)CCC(CC1CC1)O3)CO2 (single isomer, unassigned) [97 (isomer A)] | – | < 1 µM
O=C(N[C@H]1COc2ccc(CC(F)F)cc2C1)c1cc2n(n1)CCC(COC(F)F)O2 (single isomer, unassigned) [138 (isomer A)] | – | < 1 µM
O=C(N[C@H]1COc2ccc(CC(F)F)cc2C1)c1cc2n(n1)CCC(COC(F)F)O2 (single isomer, unassigned) [138 (isomer B)] | – | < 10 µM
N#Cc1ccc2c(c1)C[C@@H](NC(=O)c1cc3n(n1)CCC(CCOC(F)(F)F)O3)CO2 (single isomer, unassigned) [144 (isomer A)] | < 1 µM | –
N#Cc1ccc2c(c1)C[C@@H](NC(=O)c1cc3n(n1)CCC(CCOC(F)F)O3)CO2 (single isomer, unassigned) [146 (isomer A)] | < 10 µM | –
O=C(N[C@H]1COc2ccc(CC(F)F)cc2C1)c1cc2n(n1)CCC(CCOC(F)F)O2 (single isomer, unassigned) [148 (isomer A)] | < 1 µM | –
O=C(N[C@H]1COc2ccc(COCC(F)(F)F)cc2C1)c1cc2n(n1)CCC(CCOC(F)F)O2 (single isomer, unassigned) [150 (isomer A)] | < 1 µM | –
O=C(N[C@H]1COc2ccc(COCC(F)(F)F)cc2C1)c1cc2n(n1)CCC(CN1CCC(F)(F)C1)O2 (single isomer, unassigned) [154 (isomer A)] | < 10 µM | –
N#Cc1ccc2c(c1)C[C@@H](NC(=O)c1cc3n(n1)CCC(CSC(F)(F)F)O3)CO2 (single isomer, unassigned) [156 (isomer B)] | < 10 µM | –
O=C(N[C@H]1COc2ccc(Cl)cc2C1)c1cc2n(n1)CCC(C(F)F)O2 (single isomer, unassigned) [158 (isomer B)] | < 10 µM | –
O=C(N[C@H]1COc2ccc(C(F)(F)F)cc2C1)c1cc2n(n1)CCC(C(F)F)O2 (single isomer, unassigned) [161 (isomer B)] | < 10 µM | –
O=C(N[C@H]1COc2ccc(COCC(F)(F)F)cc2C1)c1cc2n(n1)CCC(C(F)F)O2 (single isomer, unassigned) [163 (isomer B)] | < 10 µM | –
O=C(N[C@H]1COc2ccc(CCOC(F)F)cc2C1)c1cc2n(n1)CCC(C(F)F)O2 (single isomer, unassigned) [165 (isomer A)] | < 1 µM | –
O=C(N[C@H]1COc2ccc(CCOC(F)F)cc2C1)c1cc2n(n1)CCC(C(F)F)O2 (single isomer, unassigned) [165 (isomer B)] | < 10 µM | –
O=C(N[C@H]1COc2ccc(CC(F)F)cc2C1)c1cc2n(n1)CCC(C(F)(F)F)O2 (single isomer, unassigned) [173 (isomer B)] | < 10 µM | –
O=C(N[C@H]1COc2ccc(COCC(F)(F)F)cc2C1)c1cc2n(n1)CC(C(F)(F)F)O2 (single isomer, unassigned) [184 (isomer B)] | < 10 µM | –
O=C(N[C@H]1COc2ccc(CC(F)(F)F)cc2C1)c1cc2n(n1)CC(COCC(F)(F)F)O2 (single isomer, unassigned) [192 (isomer B)] | < 1 µM | –
Cc1cnc(-c2ccc3c(c2)C[C@@H](NC(=O)c2cc4n(n2)CC(COCC(F)(F)F)O4)CO3)cn1 (single isomer, unassigned) [194 (isomer A)] | < 10 µM | –
O=C(N[C@H]1COc2ccc(CC(F)F)cc2C1)c1cc2n(n1)CC(COC(F)(F)F)O2 (single isomer, unassigned) [198 (isomer A)] | < 10 µM | –
Cn1ccc(-c2ccc3c(c2)C[C@@H](NC(=O)c2cc4n(n2)CC(CCOCC(F)(F)F)O4)CO3)n1 (single isomer, unassigned) [206 (isomer A)] | < 1 µM | –
N#Cc1ccc2c(c1)C[C@@H](NC(=O)c1cc3n(n1)CC(CCOC(F)(F)F)O3)CO2 (single isomer, unassigned) [209 (isomer A)] | < 10 µM | –

Now from value to compound:

IC50 [1] | IC50 [2] | Compound
< 1 µM | – | O=C(N[C@H]1COc2ccc(COCC(F)(F)F)cc2C1)c1cc2n(n1)CC(CC1CCOCC1)O2 (mixture of isomers) [Example 605]
< 1 µM | – | O=C(N[C@H]1COc2ccc(CC(F)F)cc2C1)c1cc2n(n1)CC(CCOC(F)(F)F)O2 (single isomer, unassigned) [211 (isomer A)]
< 10 µM | – | O=C(N[C@H]1COc2ccc(-c3cnccn3)cc2C1)c1cc2n(n1)CC(CCOC(F)F)O2 (single isomer, unassigned) [223 (isomer A)]
< 10 µM | – | Cc1ccc2c(c1)C[C@@H](NC(=O)c1cc3n(n1)CC(CCNCC(F)(F)F)O3)CO2 (single isomer, unassigned) [228 (isomer B)]
< 10 µM | – | O=C(N[C@H]1COc2ccc(C(F)(F)F)cc2C1)c1cc2n(n1)CC(CCNCC(F)(F)F)O2 (single isomer, unassigned) [230 (isomer B)]
< 1 µM | – | O=C(N[C@H]1COc2ccc(CCOC(F)F)cc2C1)c1cc2n(n1)CC(CCN1CC(F)(F)C1)O2 (single isomer, unassigned) [238 (isomer A)]
< 10 µM | – | O=C(N[C@H]1COc2ccc(CCOC(F)(F)F)cc2C1)c1cc2n(n1)CC(CCN1CC(F)(F)C1)O2 (single isomer, unassigned) [240 (isomer A)]
< 10 µM | – | O=C(N[C@H]1COc2ccc(CCOC(F)(F)F)cc2C1)c1cc2n(n1)CC(CCN1CC(F)(F)C1)O2 (single isomer, unassigned) [240 (isomer B)]
< 1 µM | – | O=C(N[C@H]1COc2ccc(CC(F)(F)F)cc2C1)c1cc2n(n1)CC(CCN1CCC(F)(F)C1)O2 (single isomer, unassigned) [241 (isomer A)]
< 1 µM | – | O=C(N[C@H]1COc2ccc(C(F)(F)F)cc2C1)c1cc2n(n1)CC(CCN1CCC(F)(F)CC1)O2 (single isomer, unassigned) [242 (isomer A)]
< 10 µM | – | N#Cc1ccc2c(c1)C[C@@H](NC(=O)c1cc3n(n1)CC(CCCOC(F)F)O3)CO2 (single isomer, unassigned) [248 (isomer B)]
< 10 µM | – | N#Cc1ccc2c(c1)C[C@@H](NC(=O)c1cc3n(n1)CCC(OC(F)(F)F)CO3)CO2 (single isomer, unassigned) [253 (isomer A)]
< 10 µM | – | N#Cc1ccc2c(c1)C[C@@H](NC(=O)c1cc3n(n1)CCC(OC(F)(F)F)CO3)CO2 (single isomer, unassigned) [253 (isomer B)]
< 10 µM | – | N#Cc1ccc2c(c1)C[C@@H](NC(=O)c1cc3n(n1)CCC(OCC(F)(F)F)CO3)CO2 (single isomer, unassigned) [255 (isomer A)]
< 10 µM | – | O=C(N[C@H]1COc2ccc(C(F)(F)F)cc2C1O)c1cc2n(n1)CCC(C(F)F)O2 (single isomer, unassigned) [534 (isomer A)]
< 10 µM | – | O=C(N[C@H]1COc2ccc(C(F)(F)F)cc2C1O)c1cc2n(n1)CCC(C(F)F)O2 (single isomer, unassigned) [534 (isomer B)]
< 10 µM | – | CC(C)(F)C1CCn2nc(C(=O)N[C@H]3COc4ccc(C#N)cc4C3)cc2O1 (single isomer, unassigned) [547 (isomer B)]
< 10 µM | – | N#CC1(COCC2CCn3nc(C(=O)N[C@H]4COc5ccc(C(F)(F)F)cc5C4)cc3O2)CC1 (single isomer, unassigned) [554 (isomer B)]
< 10 µM | – | O=C(N[C@H]1COc2ccc(C(F)(F)F)cc2C1O)c1cc2n(n1)CC(CCOCC(F)(F)F)O2 (single isomer, unassigned) [600 (isomer A)]
